Results from the NIST ThermoML archive (doi:10.1016/j.jct.2014.11.007).
± gives the expanded uncertainty stated by the source.

Test: mn = molality of the nth substance listed, in mol/kg
Conditions: 100 kPa, Liquid; for speed of sound: Frequency=3 MHz, Sing-around technique in a fixed-path interferometer; for mass density: Vibrating tube method

O=C([O-])Cc1ccccc1Nc1c(Cl)cccc1Cl.[Na+] [sodium diclofenac] + O
Conditions	mass density, 293.15 K [kg/m3]	mass density, 298.15 K [kg/m3]	mass density, 303.15 K [kg/m3]	mass density, 308.15 K [kg/m3]	mass density, 313.15 K [kg/m3]	speed of sound, 293.15 K [m/s]	speed of sound, 298.15 K [m/s]	speed of sound, 303.15 K [m/s]	speed of sound, 308.15 K [m/s]	speed of sound, 313.15 K [m/s]
m1 = 0.00165	998.454 ± 0.2	997.297 ± 0.2	995.899 ± 0.2	994.285 ± 0.2	992.465 ± 0.2	1483.5 ± 1.5	1497.6 ± 1.5	1509.9 ± 1.5	1520.6 ± 1.5	1529.6 ± 1.5
m1 = 0.00255	998.563 ± 0.2	997.404 ± 0.2	996.005 ± 0.2	994.389 ± 0.2	992.569 ± 0.2	1483.7 ± 1.5	1497.7 ± 1.5	1510 ± 1.5	1520.7 ± 1.5	1529.7 ± 1.5
m1 = 0.0027	998.582 ± 0.2	997.423 ± 0.2	996.023 ± 0.2	994.407 ± 0.2	992.587 ± 0.2	1483.7 ± 1.5	1497.7 ± 1.5	1510 ± 1.5	1520.7 ± 1.5	1529.7 ± 1.5
m1 = 0.00314	998.638 ± 0.2	997.477 ± 0.2	996.078 ± 0.2	994.461 ± 0.2	992.64 ± 0.2	1483.7 ± 1.5	1497.8 ± 1.5	1510.1 ± 1.5	1520.7 ± 1.5	1529.8 ± 1.5
m1 = 0.00352	998.687 ± 0.2	997.527 ± 0.2	996.125 ± 0.2	994.508 ± 0.2	992.687 ± 0.2	1483.8 ± 1.5	1497.8 ± 1.5	1510.1 ± 1.5	1520.8 ± 1.5	1529.8 ± 1.5
m1 = 0.00413	998.769 ± 0.2	997.607 ± 0.2	996.205 ± 0.2	994.588 ± 0.2	992.767 ± 0.2	1483.9 ± 1.5	1497.9 ± 1.5	1510.2 ± 1.5	1520.8 ± 1.5	1529.8 ± 1.5
m1 = 0.00504	998.896 ± 0.2	997.733 ± 0.2	996.33 ± 0.2	994.71 ± 0.2	992.886 ± 0.2	1484 ± 1.5	1498 ± 1.5	1510.3 ± 1.5	1520.9 ± 1.5	1529.9 ± 1.5
m1 = 0.00604	999.044 ± 0.2	997.88 ± 0.2	996.477 ± 0.2	994.853 ± 0.2	993.027 ± 0.2	1484.1 ± 1.5	1498.1 ± 1.5	1510.4 ± 1.5	1521 ± 1.5	1530 ± 1.5
m1 = 0.00698	999.192 ± 0.2	998.027 ± 0.2	996.618 ± 0.2	994.995 ± 0.2	993.169 ± 0.2	1484.2 ± 1.5	1498.2 ± 1.5	1510.5 ± 1.5	1521.1 ± 1.5	1530.1 ± 1.5
m1 = 0.00742	999.257 ± 0.2	998.095 ± 0.2	996.689 ± 0.2	995.064 ± 0.2	993.238 ± 0.2	1484.3 ± 1.5	1498.3 ± 1.5	1510.6 ± 1.5	1521.1 ± 1.5	1530.1 ± 1.5
